Structures can show the parent of a compound that is named as a salt. ± gives the expanded uncertainty stated by the source.
Conditions: 101.33 kPa, Liquid

CCCC(=O)OCC [ethyl butanoate]
Conditions	mass density [kg/m3]
293.15 K	876.91 ± 6.4
298.15 K	874.42 ± 6.5
303.15 K	870.13 ± 6.5
308.15 K	866.21 ± 6.5
313.15 K	864.31 ± 6.5
318.15 K	861.32 ± 6.5
323.15 K	858.43 ± 6.5
328.15 K	854.44 ± 6.5
333.15 K	853.89 ± 6.5
338.15 K	851.32 ± 6.6
343.15 K	850.04 ± 6.6

Falling or rolling sphere viscometry
Conditions	viscosity [mPa·s]
293.15 K	0.662 ± 0.01
298.15 K	0.62 ± 0.009
303.15 K	0.583 ± 0.009
308.15 K	0.549 ± 0.009
313.15 K	0.519 ± 0.009
318.15 K	0.491 ± 0.009
323.15 K	0.465 ± 0.009
328.15 K	0.442 ± 0.009
333.15 K	0.42 ± 0.009
338.15 K	0.4 ± 0.009
343.15 K	0.382 ± 0.009

CCOC(=O)CC(C)C [ethyl 3-methylbutanoate]
Conditions	mass density [kg/m3]
293.15 K	866.23 ± 6.5
298.15 K	864.01 ± 6.5
303.15 K	860.12 ± 6.5
308.15 K	855.98 ± 6.5
313.15 K	851.79 ± 6.6
318.15 K	847.39 ± 6.6
323.15 K	846.24 ± 6.6
328.15 K	842.35 ± 6.6
333.15 K	840.07 ± 6.6
338.15 K	836.31 ± 6.7
343.15 K	833.62 ± 6.7

Falling or rolling sphere viscometry
Conditions	viscosity [mPa·s]
293.15 K	0.805 ± 0.011
298.15 K	0.752 ± 0.011
303.15 K	0.703 ± 0.011
308.15 K	0.659 ± 0.01
313.15 K	0.62 ± 0.01
318.15 K	0.581 ± 0.01
323.15 K	0.544 ± 0.01
328.15 K	0.516 ± 0.009
333.15 K	0.485 ± 0.009
338.15 K	0.457 ± 0.009
343.15 K	0.431 ± 0.009

CC/C=C\CCOC=O [(Z)-3-hexenyl formate]
Conditions	mass density [kg/m3]
293.15 K	909.15 ± 3
298.15 K	908.13 ± 3
303.15 K	906.6 ± 3.1
308.15 K	904.95 ± 3.1
313.15 K	903.17 ± 3.1
318.15 K	901.19 ± 3.1
323.15 K	898.99 ± 3.2
328.15 K	896.72 ± 3.2
333.15 K	894.16 ± 3.3
338.15 K	891.54 ± 3.3
343.15 K	888.73 ± 3.3

Falling or rolling sphere viscometry
Conditions	viscosity [mPa·s]
293.15 K	0.599 ± 0.012
298.15 K	0.561 ± 0.012
303.15 K	0.527 ± 0.011
308.15 K	0.496 ± 0.011
313.15 K	0.469 ± 0.011
318.15 K	0.443 ± 0.01
323.15 K	0.421 ± 0.01
328.15 K	0.4 ± 0.01
333.15 K	0.38 ± 0.01
338.15 K	0.363 ± 0.01
343.15 K	0.346 ± 0.01

CCOC(=O)C(C)CC (stereo unspecified) [ethyl 2-methylbutanoate]
Conditions	mass density [kg/m3]
293.15 K	869.73 ± 7.4
298.15 K	865 ± 7.4
303.15 K	861.48 ± 7.5
308.15 K	857.88 ± 7.5
313.15 K	853.41 ± 7.5
318.15 K	849.32 ± 7.5
323.15 K	846.74 ± 7.5
328.15 K	841.59 ± 7.5
333.15 K	838.41 ± 7.5
338.15 K	835.48 ± 7.6
343.15 K	831.46 ± 7.6

Falling or rolling sphere viscometry
Conditions	viscosity [mPa·s]
293.15 K	0.831 ± 0.011
298.15 K	0.774 ± 0.01
303.15 K	0.723 ± 0.01
308.15 K	0.677 ± 0.01
313.15 K	0.635 ± 0.01
318.15 K	0.597 ± 0.01
323.15 K	0.563 ± 0.009
328.15 K	0.532 ± 0.009
333.15 K	0.503 ± 0.009
338.15 K	0.476 ± 0.009
343.15 K	0.452 ± 0.009

CCCCCCOC(=O)CCC [hexyl butanoate]
Conditions	mass density [kg/m3]	viscosity [mPa·s]
293.15 K	860.73 ± 3.6	1.351 ± 0.044
298.15 K	851 ± 3.8	1.234 ± 0.04
303.15 K	846.52 ± 3.9	1.131 ± 0.037
308.15 K	841.51 ± 4	1.014 ± 0.033
313.15 K	837.46 ± 4	0.961 ± 0.031
318.15 K	834.65 ± 4.1	0.889 ± 0.029
323.15 K	830.78 ± 4.1	0.825 ± 0.027
328.15 K	828.19 ± 4.2	0.768 ± 0.025
333.15 K	826.77 ± 4.2	0.716 ± 0.023
338.15 K	823.81 ± 4.2	0.669 ± 0.022
343.15 K	820.76 ± 4.3	0.627 ± 0.02

CC/C=C\CCOC(=O)C(C)C [cis-3-hexenyl isobutyrate]
Conditions	mass density [kg/m3]
293.15 K	885.08 ± 3.6
298.15 K	878.12 ± 3.7
303.15 K	873.61 ± 3.8
308.15 K	870.34 ± 3.8
313.15 K	865.22 ± 3.9
318.15 K	861.49 ± 4
323.15 K	857.38 ± 4
328.15 K	852.44 ± 4.1
333.15 K	848.44 ± 4.1
338.15 K	845.31 ± 4.2
343.15 K	840.09 ± 4.3

Falling or rolling sphere viscometry
Conditions	viscosity [mPa·s]
293.15 K	1.024 ± 0.023
298.15 K	0.941 ± 0.021
303.15 K	0.868 ± 0.02
308.15 K	0.804 ± 0.018
313.15 K	0.741 ± 0.017
318.15 K	0.69 ± 0.016
323.15 K	0.65 ± 0.016
328.15 K	0.606 ± 0.015
333.15 K	0.56 ± 0.014
338.15 K	0.535 ± 0.014
343.15 K	0.503 ± 0.013

CCOC(=O)CC [ethyl propanoate]
Conditions	mass density [kg/m3]
293.15 K	891.62 ± 6.4
298.15 K	884.1 ± 6.4
303.15 K	879.31 ± 6.4
308.15 K	874.12 ± 6.5
313.15 K	870.61 ± 6.5
318.15 K	867.34 ± 6.5
323.15 K	864.33 ± 6.5
328.15 K	860.89 ± 6.5
333.15 K	858.14 ± 6.5
338.15 K	856.81 ± 6.5
343.15 K	853.48 ± 6.5

Falling or rolling sphere viscometry
Conditions	viscosity [mPa·s]
293.15 K	0.523 ± 0.009
298.15 K	0.492 ± 0.009
303.15 K	0.464 ± 0.009
308.15 K	0.441 ± 0.009
313.15 K	0.418 ± 0.009
318.15 K	0.398 ± 0.009
323.15 K	0.378 ± 0.009
328.15 K	0.36 ± 0.009
333.15 K	0.344 ± 0.008
338.15 K	0.329 ± 0.008
343.15 K	0.315 ± 0.008

CCCC(=O)OCCC(C)C [3-methylbutyl butanoate]
Conditions	mass density [kg/m3]
293.15 K	866.13 ± 5.6
298.15 K	862.04 ± 5.6
303.15 K	859.14 ± 5.7
308.15 K	857.08 ± 5.7
313.15 K	853.42 ± 5.7
318.15 K	850.11 ± 5.7
323.15 K	845.78 ± 5.7
328.15 K	842.31 ± 5.7
333.15 K	840.73 ± 5.8
338.15 K	835.45 ± 5.8
343.15 K	832.76 ± 5.8

Falling or rolling sphere viscometry
Conditions	viscosity [mPa·s]
293.15 K	1.044 ± 0.014
298.15 K	0.967 ± 0.013
303.15 K	0.897 ± 0.013
308.15 K	0.836 ± 0.012
313.15 K	0.781 ± 0.012
318.15 K	0.731 ± 0.011
323.15 K	0.686 ± 0.011
328.15 K	0.646 ± 0.011
333.15 K	0.609 ± 0.01
338.15 K	0.575 ± 0.01
343.15 K	0.545 ± 0.01

Source: the NIST ThermoML archive (doi:10.1021/je050001c)
